Results reported in PubChem BioAssay AID1845202 (Molecular Pharmacology Branch, DTP, NCI, 2023).

Tested on: DMS 114 tumor spheroids, viability % test/control
Test: Anticancer human tumor DMS 114 cell line growth inhibition;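 further: spheroids exposed to compounds for 7 days before read-out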;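 on viability, T/C: luminescence used as a proxy for viable cells; 100% = DMSO vehicle control viability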
Conditions: spheroids with HUVEC and MSC; for IC50: curve of first compound; for viability, T/C: stronger effect = lower value
Outline: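 Single agents and combinations were tested on spheroids built from tumor cells plus HUVEC and hMSC, at half-log dilutions starting at or near clinical Cmax, else 10 microM; final DMSO 0.25% (v/v).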

[1] = second compound 30 pM, first compound 0.00949 µM
[2] = second compound 30 pM, first compound 0.03 µM
[3] = second compound 30 pM, first compound 0.0949 µM
[4] = second compound 30 pM, first compound 0.3 µM
[5] = second compound 30 pM, first compound 0.949 µM
[6] = second compound 30 pM, first compound 3 µM
[7] = second compound 94.9 pM, first compound 0.00949 µM
[8] = second compound 94.9 pM, first compound 0.03 µM
[9] = second compound 94.9 pM, first compound 0.0949 µM
[10] = second compound 94.9 pM, first compound 0.3 µM
[11] = second compound 94.9 pM, first compound 0.949 µM
[12] = second compound 94.9 pM, first compound 3 µM
[13] = second compound 0.0003 µM, first compound 0.00949 µM
[14] = second compound 0.0003 µM, first compound 0.03 µM
[15] = second compound 0.0003 µM, first compound 0.0949 µM
[16] = second compound 0.0003 µM, first compound 0.3 µM
[17] = second compound 0.0003 µM, first compound 0.949 µM
[18] = second compound 0.0003 µM, first compound 3 µM
[19] = second compound 0.000949 µM, first compound 0.00949 µM
[20] = second compound 0.000949 µM, first compound 0.03 µM
[21] = second compound 0.000949 µM, first compound 0.0949 µM
[22] = second compound 0.000949 µM, first compound 0.3 µM
[23] = second compound 0.000949 µM, first compound 0.949 µM
[24] = second compound 0.000949 µM, first compound 3 µM
[25] = second compound 0.003 µM, first compound 0.00949 µM
[26] = second compound 0.003 µM, first compound 0.03 µM
[27] = second compound 0.003 µM, first compound 0.0949 µM
[28] = second compound 0.003 µM, first compound 0.3 µM
[29] = second compound 0.003 µM, first compound 0.949 µM
[30] = second compound 0.003 µM, first compound 3 µM

Row | SMILES | IC50 (second compound 30 pM) [nM] | IC50 (second compound 94.9 pM) [nM] | IC50 (second compound 0.0003 µM) [nM] | IC50 (second compound 0.000949 µM) [nM] | IC50 (second compound 0.003 µM) [nM] | viability, T/C [3] [%] | viability, T/C [4] [%] | viability, T/C [5] [%] | viability, T/C [6] [%] | viability, T/C [9] [%] | viability, T/C [10] [%] | viability, T/C [11] [%] | viability, T/C [12] [%] | viability, T/C [15] [%] | viability, T/C [16] [%] | viability, T/C [17] [%] | viability, T/C [18] [%] | viability, T/C [21] [%] | viability, T/C [22] [%] | viability, T/C [23] [%] | other results
1 | CNCc1ccc(-c2cc(-c3nc(-c4ccc(S(=O)(=O)C(C)C)cc4)cnc3N)on2)cc1 + COc1cc2c(cc1O)CCNC21CSC2c3c(OC(C)=O)c(C)c4c(c3C(COC1=O)N1C(O)C3Cc5cc(C)c(OC)c(O)c5C(C21)N3C)OCO4 | 115 | 65 | < 9.49 | < 9.49 | < 9.49 | 53.1 | 20.8 | 2.84 | 0.19 | 41.3 | 12.2 | 2.28 | 0.17 | 17.8 | 11.7 | 1.89 | 0.25 | 3.57 | 3.71 | 0.67 | viability, T/C [1]: 96.4%; viability, T/C [2]: 94.3%; viability, T/C [7]: 93.9%; viability, T/C [8]: 70.5%; viability, T/C [13]: 38.6%; viability, T/C [14]: 28.3%; viability, T/C [19]: 4.46%; viability, T/C [20]: 4.77%; viability, T/C [24]: 0.15%; viability, T/C [25]: 0.28%; viability, T/C [26]: 0.28%; viability, T/C [27]: 0.31%; viability, T/C [28]: 0.26%; viability, T/C [29]: 0.23%; viability, T/C [30]: 0.25%
2 | Cc1sc2c(c1C)C(c1ccc(Cl)cc1)=NC(CC(=O)Nc1ccc(O)cc1)c1nnc(C)n1-2 (stereo not given) + COc1cc2c(cc1O)CCNC21CSC2c3c(OC(C)=O)c(C)c4c(c3C(COC1=O)N1C(O)C3Cc5cc(C)c(OC)c(O)c5C(C21)N3C)OCO4 | 165 | 97.3 | < 9.49 | < 9.49 | < 9.49 | 65.1 | 33.3 | 5.12 | 3.29 | 55.4 | 12.1 | 5.83 | 1.91 | 13.1 | 5.79 | 1.67 | 0.76 | 1.35 | 0.73 | 0.39 | viability, T/C [1]: 107%; viability, T/C [2]: 102%; viability, T/C [7]: 101%; viability, T/C [8]: 80.1%; viability, T/C [13]: 41.7%; viability, T/C [14]: 27.1%; viability, T/C [19]: 3.12%; viability, T/C [20]: 1.58%; viability, T/C [24]: 0.19%; viability, T/C [25]: 0.2%; viability, T/C [26]: 0.19%; viability, T/C [27]: 0.17%; viability, T/C [28]: 0.13%; viability, T/C [29]: 0.16%; viability, T/C [30]: 0.3%
3 | Cn1ncnc1[C@H]1c2n[nH]c(=O)c3cc(F)cc(c23)N[C@@H]1c1ccc(F)cc1 + COc1cc2c(cc1O)CCNC21CSC2c3c(OC(C)=O)c(C)c4c(c3C(COC1=O)N1C(O)C3Cc5cc(C)c(OC)c(O)c5C(C21)N3C)OCO4 | 428 | 104 | < 9.49 | < 9.49 | < 9.49 | 78.4 | 59.6 | 29.9 | 10.4 | 54.6 | 33.3 | 16.5 | 7.38 | 17.8 | 16.6 | 10.7 | 5.92 | 3.4 | 2.16 | 1.41 | viability, T/C [1]: 91.6%; viability, T/C [2]: 91%; viability, T/C [7]: 79.2%; viability, T/C [8]: 63.3%; viability, T/C [13]: 21.8%; viability, T/C [14]: 20.3%; viability, T/C [19]: 2.67%; viability, T/C [20]: 3.65%; viability, T/C [24]: 0.78%; viability, T/C [25]: 0.32%; viability, T/C [26]: 0.33%; viability, T/C [27]: 0.3%; viability, T/C [28]: 0.32%; viability, T/C [29]: 0.28%; viability, T/C [30]: 0.49%
4 | O=C(c1cc(Cc2n[nH]c(=O)c3ccccc23)ccc1F)N1CCN(C(=O)C2CC2)CC1 + COc1cc2c(cc1O)CCNC21CSC2c3c(OC(C)=O)c(C)c4c(c3C(COC1=O)N1C(O)C3Cc5cc(C)c(OC)c(O)c5C(C21)N3C)OCO4 | 5540 | 3670 | < 94.9 | < 94.9 | < 94.9 | 106 | 103 | 97.1 | 83.8 | 92.3 | 94.6 | 88.1 | 57.2 | 29.5 | 21.9 | 23.2 | 14.8 | 3.19 | 2.4 | 2.21 | viability, T/C (second compound 30 pM, first compound 9.49 µM): 20.2%; viability, T/C (second compound 30 pM, first compound 30 µM): 17.4%; viability, T/C (second compound 94.9 pM, first compound 9.49 µM): 17.3%; viability, T/C (second compound 94.9 pM, first compound 30 µM): 13.7%; viability, T/C (second compound 0.0003 µM, first compound 9.49 µM): 7.77%; viability, T/C (second compound 0.0003 µM, first compound 30 µM): 7.92%; viability, T/C [24]: 2.86%; viability, T/C (second compound 0.000949 µM, first compound 9.49 µM): 1.24%; viability, T/C (second compound 0.000949 µM, first compound 30 µM): 0.5%; viability, T/C [27]: 0.24%; viability, T/C [28]: 0.22%; viability, T/C [29]: 0.19%; viability, T/C [30]: 0.2%; viability, T/C (second compound 0.003 µM, first compound 9.49 µM): 0.19%; viability, T/C (second compound 0.003 µM, first compound 30 µM): 0.4%
